Organism: Rattus norvegicus
Experiment: DrugMatrix - Regimen: Daily Repeat
Type: toxicity, organism-based, Sprague-Dawley
Set-up: regimen Daily Repeat, gender Male, age 6-8 weeks
Conditions: in vivo, po, route oral GAVAGE, vehicle 100 % WATER; for ABSOLUTE BASOPHIL / ABSOLUTE EOSINOPHIL / ABSOLUTE LYMPHOCYTE / ABSOLUTE MONOCYTE / ABSOLUTE SEGMENTED NEUTROPHIL / BASOPHIL / EOSINOPHIL / ERYTHROCYTE COUNT / HEMATOCRIT / HEMOGLOBIN / LEUKOCYTE COUNT / LYMPHOCYTE / MEAN CORPUSCULAR HEMOGLOBIN / MEAN CORPUSCULAR HEMOGLOBIN CONCENTRATION / MEAN CORPUSCULAR VOLUME / MONOCYTE / NEUTROPHIL / NUCLEATED RED BLOOD CELLS / PLATELET COUNT: tissue Blood; for ALANINE AMINOTRANSFERASE / ALBUMIN / ALKALINE PHOSPHATASE / ASPARTATE AMINOTRANSFERASE / BLOOD UREA NITROGEN / CARBON DIOXIDE / CHLORIDE / CHOLESTEROL / CREATINE PHOSPHOKINASE / CREATININE / GLUCOSE / LACTATE DEHYDROGENASE / LIPASE / PHOSPHORUS / POTASSIUM / SODIUM / TOTAL BILIRUBIN / TOTAL PROTEIN / URIC ACID: tissue Plasma
[1] = 0 mg/kg, 72 h, dose level Control, time 3 day
[2] = 0 mg/kg, 120 h, dose level Control, time 5 day
[3] = 25 mg/kg, 72 h, dose level High, time 3 day

O=P1(N(CCCl)CCCl)NCCCO1 (centres undefined) [CYCLOPHOSPHAMIDE ANHYDROUS]
ABSOLUTE BASOPHIL [1]: 0 CELLS/uL | ABSOLUTE EOSINOPHIL [1]: 32.5 CELLS/uL | ABSOLUTE LYMPHOCYTE [1]: 9305.83 CELLS/uL | ABSOLUTE MONOCYTE [1]: 43.83 CELLS/uL | ABSOLUTE SEGMENTED NEUTROPHIL [1]: 817.83 CELLS/uL | BASOPHIL [1]: 0% | EOSINOPHIL [1]: 0.33% | ERYTHROCYTE COUNT [1]: 5.38 x10E6/uL | HEMATOCRIT [1]: 33.63% | HEMOGLOBIN [1]: 13.17 G/DL | LEUKOCYTE COUNT [1]: 10.2 x10E3/uL | LYMPHOCYTE [1]: 91.17% | MEAN CORPUSCULAR HEMOGLOBIN [1]: 24.5 pg | MEAN CORPUSCULAR HEMOGLOBIN CONCENTRATION [1]: 39.13 G/DL | MEAN CORPUSCULAR VOLUME [1]: 62.53 fL | MONOCYTE [1]: 0.5% | NEUTROPHIL [1]: 8% | NUCLEATED RED BLOOD CELLS [1]: 0.17 /100WBC | PLATELET COUNT [1]: 858 x10E3/uL | ALANINE AMINOTRANSFERASE [1]: 55.67 u/L | ALBUMIN [1]: 4.07 G/DL | ALKALINE PHOSPHATASE [1]: 337 u/L | ASPARTATE AMINOTRANSFERASE [1]: 84 u/L | BLOOD UREA NITROGEN [1]: 13.17 mg/dL | CARBON DIOXIDE [1]: 34.17 mmol/L | CHLORIDE [1]: 99.33 MEQ/L | CHOLESTEROL [1]: 78.83 mg/dL | CREATINE PHOSPHOKINASE [1]: 576.83 u/L | CREATININE [1]: 0.17 mg/dL | GLUCOSE [1]: 152.67 mg/dL | LACTATE DEHYDROGENASE [1]: 147.83 u/L | LIPASE [1]: 9.5 u/L | PHOSPHORUS [1]: 10.78 mg/dL | POTASSIUM [1]: 6.34 MEQ/L | SODIUM [1]: 144.12 MEQ/L | TOTAL BILIRUBIN [1]: 0.18 mg/dL | TOTAL PROTEIN [1]: 6.08 G/DL | URIC ACID [1]: 0.65 mg/dL | ABSOLUTE BASOPHIL [2]: 0 CELLS/uL | ABSOLUTE EOSINOPHIL [2]: 31.17 CELLS/uL | ABSOLUTE LYMPHOCYTE [2]: 7918.33 CELLS/uL | ABSOLUTE MONOCYTE [2]: 58.33 CELLS/uL | ABSOLUTE SEGMENTED NEUTROPHIL [2]: 725.5 CELLS/uL | BASOPHIL [2]: 0% | EOSINOPHIL [2]: 0.33% | ERYTHROCYTE COUNT [2]: 5.32 x10E6/uL | HEMATOCRIT [2]: 33.53% | HEMOGLOBIN [2]: 13.17 G/DL | LEUKOCYTE COUNT [2]: 8.73 x10E3/uL | LYMPHOCYTE [2]: 90.33% | MEAN CORPUSCULAR HEMOGLOBIN [2]: 24.82 pg | MEAN CORPUSCULAR HEMOGLOBIN CONCENTRATION [2]: 39.33 G/DL | MEAN CORPUSCULAR VOLUME [2]: 63.12 fL | MONOCYTE [2]: 0.67% | NEUTROPHIL [2]: 8.67% | NUCLEATED RED BLOOD CELLS [2]: 0 /100WBC | PLATELET COUNT [2]: 1144.83 x10E3/uL | ALANINE AMINOTRANSFERASE [2]: 60.5 u/L | ALBUMIN [2]: 3.97 G/DL | ALKALINE PHOSPHATASE [2]: 343.17 u/L | ASPARTATE AMINOTRANSFERASE [2]: 80.83 u/L | BLOOD UREA NITROGEN [2]: 15 mg/dL | CARBON DIOXIDE [2]: 31 mmol/L | CHLORIDE [2]: 99.75 MEQ/L | CHOLESTEROL [2]: 71.5 mg/dL | CREATINE PHOSPHOKINASE [2]: 237.17 u/L | CREATININE [2]: 0.17 mg/dL | GLUCOSE [2]: 137 mg/dL | LACTATE DEHYDROGENASE [2]: 146.17 u/L | LIPASE [2]: 11.5 u/L | PHOSPHORUS [2]: 10.13 mg/dL | POTASSIUM [2]: 6 MEQ/L | SODIUM [2]: 145 MEQ/L | TOTAL BILIRUBIN [2]: 0.13 mg/dL | TOTAL PROTEIN [2]: 5.82 G/DL | URIC ACID [2]: 0.62 mg/dL | ABSOLUTE BASOPHIL [3]: 0 CELLS/uL | ABSOLUTE EOSINOPHIL [3]: 0 CELLS/uL | ABSOLUTE LYMPHOCYTE [3]: 2636 CELLS/uL | ABSOLUTE MONOCYTE [3]: 11 CELLS/uL | ABSOLUTE SEGMENTED NEUTROPHIL [3]: 486.33 CELLS/uL | BASOPHIL [3]: 0% | EOSINOPHIL [3]: 0% | ERYTHROCYTE COUNT [3]: 5 x10E6/uL | HEMATOCRIT [3]: 30.93% | HEMOGLOBIN [3]: 12.33 G/DL | LEUKOCYTE COUNT [3]: 3.13 x10E3/uL | LYMPHOCYTE [3]: 83.67% | MEAN CORPUSCULAR HEMOGLOBIN [3]: 24.73 pg | MEAN CORPUSCULAR HEMOGLOBIN CONCENTRATION [3]: 39.87 G/DL | MEAN CORPUSCULAR VOLUME [3]: 61.97 fL | MONOCYTE [3]: 0.33% | NEUTROPHIL [3]: 16% | NUCLEATED RED BLOOD CELLS [3]: 0 /100WBC | PLATELET COUNT [3]: 636 x10E3/uL | ALANINE AMINOTRANSFERASE [3]: 49.33 u/L | ALBUMIN [3]: 4.03 G/DL | ALKALINE PHOSPHATASE [3]: 291 u/L | ASPARTATE AMINOTRANSFERASE [3]: 68 u/L | BLOOD UREA NITROGEN [3]: 15.67 mg/dL | CARBON DIOXIDE [3]: 34 mmol/L | CHLORIDE [3]: 99.5 MEQ/L | CHOLESTEROL [3]: 84.67 mg/dL | CREATINE PHOSPHOKINASE [3]: 160 u/L | CREATININE [3]: 0.13 mg/dL | GLUCOSE [3]: 147 mg/dL | LACTATE DEHYDROGENASE [3]: 134 u/L | LIPASE [3]: 9.67 u/L | PHOSPHORUS [3]: 10.63 mg/dL | POTASSIUM [3]: 5.82 MEQ/L | SODIUM [3]: 144.75 MEQ/L | TOTAL BILIRUBIN [3]: 0.17 mg/dL | TOTAL PROTEIN [3]: 5.77 G/DL | URIC ACID [3]: 0.33 mg/dL

Source: ChEMBL document CHEMBL3885881, “DrugMatrix”
